# Molecular target: IMPDH human type II (Homo sapiens, UniProt P12268)
# Test: IMPDH activity inhibition assay (spectrophotometric, NADH formation at 340 nm)
# Format: biochemical
# Conditions: not given
# Experimental: We have measured the inhibition constants of each compound against IMPDH using an adaptation of the method first reported by […]. Moyed, and […]. Biol. Chem., 226, p. 339 (1957)]. We measured the inhibition constants of the compounds listed in Table III utilizing the following protocol: IMP dehydrogenase activity was assayed following an adaptation of the method first reported by […]. Moyed, H. S. and […]. Biol. Chem. 226, 339]. Enzyme activity was measured spectrophotometrically, by monitoring the increase in absorbance at 340 nm due to the formation of NADH (ε340 is 6220 M^-1 cm^-1). The reaction mixture contained 0.1 M Tris pH 8.0, 0.1 M KCl, 3 mM EDTA, 2 mM DTT, […] and enzyme (IMPDH human type II) at a concentration of 15 to 50 nM. This solution is incubated at 37° C. for 10 minutes. The reaction is started by adding NAD to a final concentration of 0.1 M and the initial rate is measured by following the linear increase in absorbance at 340 nm for 10 minutes. For reading in a standard spectrophotometer (path length 1 cm) the final volume in the cuvette is 1.0 ml. The assay has also been adapted to a 96 well microtiter plate format; in this case the concentrations of all the reagents remain the same and the final volume is decreased to 200 μl. For the analysis of inhibitors, the compound in question is dissolved in DMSO to a final concentration of 20 mM and added to the initial assay mixture for preincubation with the enzyme at a final volume of 2-5% (v/v). The reaction is started by the addition of NAD, and the initial rates measured as above. […] The designation “ND” is used where a given compound was not tested.
row,SMILES,Ki [nM]
1,C=CCOC(=O)NCc1cccc(NC(=O)Nc2ccc(-c3cnco3)c(OC)c2)c1 [Compound 125],0.01 to 50
2,COc1cc(NC(=O)Nc2cccc(CNC(=O)OCCO)c2)ccc1-c1cnco1 [Compound 134],0.01 to 50
3,COc1cc(NC(=O)Nc2cccc(CNC(=O)Oc3cccnc3)c2)ccc1-c1cnco1 [Compound 137],51 to 1000
4,COc1cc(NC(=O)Nc2cccc(CNC(=O)Oc3ccc(NC(C)=O)cc3)c2)ccc1-c1cnco1 [Compound 127],0.01 to 50

# Same assay, conditions: IMPDH human type II, 15 to 50 nM enzyme, 37° C., tight-binding fit (Henderson); read-out: Ki
row,SMILES,Ki [nM]
1,COc1cc(NC(=O)Nc2cccc(CNC(=O)OC3CCCCO3)c2)ccc1-c1cnco1 (racemic) [Compound 142],0.01 to 50
2,COc1cc(NC(=O)Nc2cccc(CNC(=O)OCc3cccs3)c2)ccc1-c1cnco1 [Compound 129],0.01 to 50
3,O=C(Nc1ccc(-c2cnco2)cc1)Nc1ccc(Cl)c(C(F)(F)F)c1 [Compound 9],1000 to 10000
4,COc1cc(NC(=O)Nc2cccc(NC(=O)Cc3ccccc3)c2)ccc1-c1cnco1 [Compound 111],0.01 to 50
5,O=C(O)Cc1cccc(NC(=O)Nc2ccc(-c3cnco3)cc2)c1 [Compound 54],1000 to 10000
6,COC(=O)Nc1cccc(NC(=O)Nc2ccc(-c3cnco3)c(Cl)c2)c1 [Compound 71],1000 to 10000
7,CN(C)c1cccc(NC(=O)Nc2ccc(-c3cnco3)cc2)c1 [Compound 49],1000 to 10000
8,O=C(Nc1ccc(-c2cnco2)cc1)Nc1cccc(S(=O)(=O)Nc2ccccc2)c1 [Compound 82],1000 to 10000
9,COc1cc(NC(=O)Nc2cccc(NC(=O)C(F)F)c2)ccc1-c1cnco1 [Compound 100],51 to 1000
10,CC(=O)Nc1cccc(NC(=O)Nc2ccc(-c3cnco3)c(Cl)c2)c1 [Compound 72],1000 to 10000
11,O=C(Nc1ccc(-c2cnco2)cc1)Nc1ccc([N+](=O)[O-])cc1 [Compound 16],1000 to 10000
12,Cc1cccc(NC(=O)Nc2ccc(-c3cnco3)c(N)c2)c1 [Compound 109],51 to 1000
13,O=C(Nc1ccc(-c2cnco2)c(Cl)c1)Nc1cccs1 [Compound 68],51 to 1000
14,Cc1cccc(NC(=O)Nc2ccc(-c3cnco3)c(Cl)c2)c1 [Compound 43],51 to 1000
15,O=C(Nc1ccncc1)Nc1ccc(-c2cnco2)cc1 [Compound 30],1000 to 10000
16,O=C(Nc1ccc(-c2cnco2)cc1)Nc1cccc(-c2cnco2)c1 [Compound 67],1000 to 10000
17,COc1cc(NC(=O)Nc2cccc(NC(=O)c3ccccc3)c2)ccc1-c1cnco1 [Compound 110],51 to 1000

row,SMILES,Ki [nM]
1,Cc1cc(NC(=O)Nc2ccc(-c3cnco3)cc2)ccc1[N+](=O)[O-] [Compound 40],1000 to 10000
2,Cc1c(Cl)cccc1NC(=O)Nc1ccc(-c2cnco2)cc1 [Compound 10],1000 to 10000
3,COc1cc(NC(=O)Nc2cccc(CNC(=O)OCC3CCCCN3)c2)ccc1-c1cnco1 (stereo not shown) [Compound 159],0.01 to 50
4,O=C(Nc1ccc(-c2cnco2)cc1)Nc1cccc(F)c1 [Compound 20],1000 to 10000
5,Cc1cccc(NC(=O)Nc2ccc(-c3cnco3)c(F)c2)c1 [Compound 46],51 to 1000
6,COc1cc(NC(=O)Nc2cccc(CNC(=O)OC3COCOC3)c2)ccc1-c1cnco1 [Compound 126],0.01 to 50
7,COc1cc(NC(=O)Nc2cccc(NC(=O)OCc3cccnc3)c2)ccc1-c1cnco1 [Compound 98],51 to 1000
8,COc1cc(NC(=O)Nc2cccc(CNC(=O)OC3CCCSC3)c2)ccc1-c1cnco1 (stereo not shown) [Compound 161],0.01 to 50
9,COc1cc(NC(=O)Nc2cccc(CNC(=O)OCC3CCCN(C(=O)OC(C)(C)C)C3)c2)ccc1-c1cnco1 (stereo not shown) [Compound 149],0.01 to 50
10,Cc1cccc(NC(=O)Nc2cccc([N+](=O)[O-])c2)c1 [Compound 32],> 10000
11,COc1cc(NC(=O)Nc2cccc(N(C)C(=O)C(F)(F)F)c2)ccc1-c1cnco1 [Compound 97],0.01 to 50
12,COc1cc(NC(=O)Nc2cccc(N(C)C(C)=O)c2)ccc1C#N [Compound 164],51 to 1000
13,COc1cc(NC(=O)Nc2cccc(CNC(=O)OCCCNC(=O)OC(C)(C)C)c2)ccc1-c1cnco1 [Compound 139],51 to 1000
14,COc1cc(NC(=O)Nc2cccc(CN)c2)ccc1-c1cnco1 [Compound 105],51 to 1000
15,COc1cc(NC(=O)Nc2cccc(NC(=O)OCc3ccccc3)c2)ccc1-c1cnco1 [Compound 83],51 to 1000
16,O=C(Nc1ccc(Oc2ccccc2)cc1)Nc1ccc(-c2cnco2)cc1 [Compound 21],1000 to 10000

# Next, values leading:
row,Ki [nM],SMILES
1,1000 to 10000,CC(=O)OCc1cc(NC(=O)Nc2cccc(C)c2)ccc1-c1cnco1 [Compound 101]
2,51 to 1000,COc1cc(NC(=O)Nc2cccc(NC(=O)CC3CCCC3)c2)ccc1-c1cnco1 [Compound 114]
3,0.01 to 50,COc1cc(NC(=O)Nc2cccc(NC(=O)Oc3ccccc3)c2)ccc1-c1cnco1 [Compound 99]
4,51 to 1000,Cc1cccc(NC(=O)Nc2ccc(-c3cnco3)c(Br)c2)c1 [Compound 60]
5,51 to 1000,O=C(Nc1cccc(I)c1)Nc1ccc(-c2cnco2)c(Cl)c1 [Compound 73]
6,> 10000,CC(=O)N(C)c1cccc(NC(=O)Nc2ccc(C#N)c(S(C)(=O)=O)c2)c1 [Compound 166]
7,51 to 1000,Nc1cccc(NC(=O)Nc2ccc(-c3cnco3)cc2)c1 [Compound 24]
8,0.01 to 50,COc1cc(NC(=O)Nc2cccc(CNC(=O)OCc3ccccc3)c2)ccc1-c1cnco1 [Compound 138]
9,0.01 to 50,COc1cc(NC(=O)Nc2cccc(N)c2)ccc1-c1cnco1 [Compound 59]
10,1000 to 10000,CNS(=O)(=O)c1cccc(NC(=O)Nc2ccc(-c3cnco3)cc2)c1 [Compound 81]
11,1000 to 10000,C#Cc1cccc(NC(=O)Nc2ccc(-c3cnco3)cc2)c1 [Compound 26]
12,1000 to 10000,CC(C)(C)OC(=O)NCc1cccc(NC(=O)Nc2cccc(CNC(=O)OC(C)(C)C)c2)c1 [Compound 103]
13,51 to 1000,O=C(Nc1ccc(-c2cnco2)cc1)Nc1cccc(Br)c1 [Compound 7]
14,1000 to 10000,COc1ccccc1NC(=O)Nc1ccc(-c2cnco2)cc1 [Compound 12]
15,1000 to 10000,COc1ccc(NC(=O)Nc2cccc(F)c2)cc1OC [Compound 36]
16,51 to 1000,COc1cc(NC(=S)Nc2cccc(C)c2)ccc1-c1cnco1 [Compound 115]
17,51 to 1000,O=C(Nc1ccc(-c2cnco2)cc1)Nc1ccsc1 [Compound 3]
18,51 to 1000,Nc1cccc(NC(=O)Nc2ccc(-c3cnco3)c(Br)c2)c1 [Compound 65]
19,1000 to 10000,COc1ccc(NC(=O)Nc2cccc(Br)c2)cc1OC [Compound 34]
20,0.01 to 50,COCCOC(=O)NCc1cccc(NC(=O)Nc2ccc(-c3cnco3)c(OC)c2)c1 [Compound 130]
21,0.01 to 50,COc1cc(NC(=O)Nc2cccc(CNC(=O)OCCCCCO)c2)ccc1-c1cnco1 [Compound 141]

row,Ki [nM],SMILES
1,51 to 1000,COC(=O)Cc1cccc(NC(=O)Nc2ccc(-c3cnco3)c(Cl)c2)c1 [Compound 57]
2,1000 to 10000,O=C(Nc1ccccc1)Nc1ccc(-c2cnco2)c(F)c1 [Compound 45]
3,1000 to 10000,O=C(Nc1ccc(-c2cnco2)cc1)Nc1cccc(Cl)c1 [Compound 22]
4,1000 to 10000,COC(=O)c1cc(NC(=O)Nc2cccc(C)c2)ccc1-c1cnco1 [Compound 88]
5,1000 to 10000,COc1ccc(NC(=O)Nc2cccc(C)c2)cc1CO [Compound 90]
6,51 to 1000,COc1cc(NC(=O)Nc2cccc(CNC(=O)OC3CCCN(C(=O)OC(C)(C)C)C3)c2)ccc1-c1cnco1 (stereo not shown) [Compound 143]
7,51 to 1000,CC(=O)N(C)c1cccc(NC(=O)Nc2ccc(C#N)c(Cl)c2)c1 [Compound 163]
8,1000 to 10000,Cc1cccc(NC(=O)Nc2ccc(-c3ocnc3C)c(Cl)c2)c1 [Compound 76]
9,1000 to 10000,Cc1ncc(-c2cccc(NC(=O)Nc3ccc(-c4cnco4)cc3)c2)cn1 [Compound 66]
10,51 to 1000,COc1cc(NC(=O)Nc2cccc(NC(=O)C(=O)c3cc(OC)c(OC)c(OC)c3)c2)ccc1-c1cnco1 [Compound 108]
11,0.01 to 50,COc1cc(NC(=O)Nc2cccc(CNC(=O)OCC3CCNCC3)c2)ccc1-c1cnco1 [Compound 155]
12,> 10000,CC1(c2cccc(NC(=O)Nc3ccc(-c4cnco4)cc3)c2)OCCO1 [Compound 50]
13,51 to 1000,COc1cc(NC(=O)Nc2cccc(NC(=O)C(F)(F)F)c2)ccc1-c1cnco1 [Compound 96]
14,51 to 1000,Cc1cc(NC(=O)Nc2ccccc2)ccc1-c1cnco1 [Compound 74]
15,51 to 1000,O=C(Nc1ccsc1)Nc1ccc(-c2cnco2)c(Cl)c1 [Compound 69]
16,1000 to 10000,COc1cccc(NC(=O)Nc2ccc(-c3cnco3)cc2)c1 [Compound 13]
17,1000 to 10000,COc1ccc(NC(=O)Nc2cccc([N+](=O)[O-])c2)cc1Cl [Compound 52]
18,51 to 1000,O=C(Nc1cccc([N+](=O)[O-])c1)Nc1ccc(-c2cnco2)c(Cl)c1 [Compound 78]
19,1000 to 10000,Cc1ccc(NC(=O)Nc2ccc(-c3cnco3)c(Cl)c2)s1 [Compound 86]
20,51 to 1000,Cc1cccc(NC(=O)Nc2ccc(-c3cnco3)c(C)c2)c1 [Compound 75]
21,0.01 to 50,COCCCOC(=O)NCc1cccc(NC(=O)Nc2ccc(-c3cnco3)c(OC)c2)c1 [Compound 162]
